Test results from patent publication US9364545B2, “Thermosensitive injectable hydrogel for drug delivery” (Taipei Medical University, priority 2014, dated 2016).

What was measured:
[1] = test system: C26 colon carcinoma cells; test: Cell viability, MTT assay; assay type: cell-based; conditions: 24 h incubation
Protocol: (§1) C26 colon carcinoma cells and HT29 human colon cancer cells were cultured with RPMI-1640 with 10% fetal bovine serum and 10% penicillinstreptomycin. MCF-7 human breast cancer cells MEM were cultured with Eagle's MEM with 10% fetal bovine serum and 10% penicillinstreptomycin. Cells were seeded at a density of 5×10^4 cells per well in 24-well plates. After 24 hours of incubation at 37° C. with 5% CO2, the medium was replaced with new medium containing Dox formulation. After 24 hours incubation, cell survival was then measured using tetrazolium salt MTT assay. One hundred microliters of MTT (6 mg/mL) was added to each well for 4 hours. The medium was removed after […] incubation and then 200 μl DMSO was added to dissolve any purple formazan crystal formed. Remove the solvent was removed and dried in an oven at 50° C. for 2 hours. Cell viability was measured by ELISA reader and absorbance set at 520 nm.

[2] = test system: HT29 human colon cancer cells; test: Cell viability, MTT assay; assay type: cell-based; conditions: 24 h incubation
Protocol: as §1

[3] = test system: MCF-7 human breast cancer cells; test: Cell viability, MTT assay; assay type: cell-based; conditions: MCF7 cells, 24 h incubation
Protocol: as §1

C26 tumor = test: Tumor inhibition study, intratumoral injection; assay type: in vivo, Balb/c male mice
Protocol: (§2) The suspension of […] (1.0×10^6 cells/100 μl) was injected subcutaneously in the right flank of Balb/c male mice using 26 G needles. After 7 days tumor size reached 100-300 mm^3. The […] were randomly divided into three groups (n=3) and received following treatments. Group 1 mice were treated with an intratumoral injection of sterile PBS as control group; Group 2, mice received an intratumoral injection of Dox-HA hydrogel; Group 3, mice received an intratumoral injection of free Dox solution (4 mg/kg in 0.1 mL). The mice were weighed and tumor size was measured using a capliper for 10 days post intratumoral injection. The tumor volume (V) was calculated with the following formula V=[length×(width)^2]/2
On day 10, the mice were sacrificed and the tumor masses harvested, weighted, and photographed. Tumor inhibition rate was calculated using the equation. Tumor inhibition rate (%)=(Wc−Wt)/Wc where Wc is the weight of the tumor in the control group and Wt is the weight of the tumor in the test formulation group (L. Chen, X. Sha, X. Jiang, Y. Chen, Q. Ren, X. Fang, Pluronic P105/F127 mixed micelles for the delivery of docetaxel against Taxol-resistant non-small cell lung cancer: optimization and in vitro, in vivo evaluation, International journal of nanomedicine, 8 (2013) 73-84).
The in vivo antitumor efficacy of DHMF-15 hydrogel formulation was evaluated in the C26 tumor-bearing mice model. Mice were randomized into […] when the tumor size reached 100 mm^3. Three groups of mice received intratumoral injection of PBS, DHMF-15 hydrogel, free Dox solution, DMF-15 hydrogel, and DF-15 hydrogel respectively. […] PBS treatments had no substantial effect on C26 tumor growth, and the tumor volumes increased rapidly. After administration for 10 days, the average tumor volume in the PBS treated mice had reached over 1000 mm^3. […] Ranked from high to low inhibition efficacy, the formulations are ordered as follows: DHMF-15, free Dox solution, DMF-15, DF-15, PBS.

[4] = Body weight and death as indication of systemic toxicity; assay type: in vivo, Balb/c male mice; conditions: after intratumoral injection, during the experiment
Protocol: as §2
We also monitored change in body weight during the experiment as an indication of systemic toxicity.

Structure (SMILES): COc1cccc2c1C(=O)c1c(O)c3c(c(O)c1C2=O)C[C@@](O)(C(=O)CO)C[C@@H]3O[C@H]1C[C@H](N)[C@H](O)[C@H](C)O1.Cl [free Dox solution, Doxorubicin Hydrochloride]
- Cytotoxicity (cell viability) [1]: potent cytotoxicity
- Cytotoxicity (cell viability) [2]: potent cytotoxicity
- Cytotoxicity (cell viability) [3]: potent cytotoxicity
- Tumor size as % of that in the PBS control group (C26 tumor; after 10 days, intratumoral injection): 42.45%
- Tumor weight compared to the control group (C26 tumor; day 10): significantly reduced
- Tumor inhibition rate (C26 tumor; excised tumor weight on day 10, (Wc−Wt)/Wc): 80.65%
- Toxicity-induced death and body weight loss [4]: neither toxicity-induced death nor serious body weight loss
